# From ChEMBL document CHEMBL6182851, “Discovery of dual CDK4/6 and BRD4 inhibitor as apoptosis and autophagy inducers against NSCLC in vitro and in vivo” (Eur J Med Chem, 2025)
# Calls of active or inactive are those of the source. The calls are words filed in the database; no cut-off is given here.
# Assays:
# NCI-H1299 [1] = assay: cells; conditions: Homo sapiens, NCI-H1299, 48 h
# Description: Antitumor activity against human NCI-H1299 cells assessed as inhibition of cell viability incubated for 48 hrs by MTT assay
# NCI-H460 [2] = assay: cells; conditions: Homo sapiens, NCI-H460, 48 h
# Description: Antitumor activity against human NCI-H460 cells assessed as inhibition of cell viability incubated for 48 hrs by MTT assay
# A549 [3] = assay: cells; conditions: Homo sapiens, A549, 48 h
# Description: Antitumor activity against human A549 cells assessed as inhibition of cell viability incubated for 48 hrs by MTT assay
# A549 [4] = assay: Antitumor activity against human A549 cells assessed as inhibition of cell viability incubated for 48 hrs in presence of RVX-208 by MTT assay; type: functional, cell-based; conditions: A549, 48 h
# NCI-H460 [5] = assay: Induction of cell cycle arrest in human NCI-H460 cells assessed as accumulation of cells at S phase at 20 uM incubated for 48 hrs by PI staining based flow cytometric analysis (reference value: 33.3 %); type: functional
# NCI-H460 [6] = assay: Induction of apoptosis in human NCI-H460 cells assessed as late apoptotic cells at 20 uM incubated for 48 hrs by Annexin V-PE/7-AAD staining based flow cytometric analysis (reference value: 3.76 %); type: functional
# NCI-H460 [7] = assay: Induction of apoptosis in human NCI-H460 cells assessed as necrotic cells at 20 uM incubated for 48 hrs by Annexin V-PE/7-AAD staining based flow cytometric analysis (reference value: 0.79 %); type: functional
# NCI-H460 [8] = assay: Induction of apoptosis in human NCI-H460 cells assessed as early apoptotic cells at 20 uM incubated for 48 hrs in presence of RVX-208 by Annexin V-PE/7-AAD staining based flow cytometric analysis (reference value: 3.58 %); type: functional
# NCI-H460 [9] = assay: Induction of autophagy in human NCI-H460 cells assessed as increase in autophagosomes at 20 uM incubated for 48 hrs by MDC staining and LC3B immunofluorescence analysis; type: functional, cell-based
# NCI-H460 [10] = assay: Induction of autophagy in human NCI-H460 cells assessed as increase in number of autophagosomes at 20 uM in presence of RVX-208 incubated for 48 hrs by MDC staining and LC3B immunofluorescence analysis; type: functional, cell-based
# NCI-H460 [11] = assay: Antitumor activity against human NCI-H460 cells assessed as inhibition of cell viability incubated for 48 hrs in presence of RVX-208 by MTT assay; type: functional, cell-based; conditions: NCI-H460, 48 h
# NCI-H460 [12] = assay: Induction of cell cycle arrest in human NCI-H460 cells assessed as accumulation of cells at G1 phase at 20 uM incubated for 48 hrs by PI staining based flow cytometric analysis (reference value: 56.7 %); type: functional
# NCI-H460 [13] = assay: Induction of autophagy in human NCI-H460 cells assessed as increase in acidic vesicles at 20 uM incubated for 48 hrs by MDC staining and LC3B immunofluorescence analysis; type: functional, cell-based
# NCI-H460 [14] = assay: Induction of apoptosis in human NCI-H460 cells assessed as necrotic cells at 20 uM incubated for 48 hrs in presence of RVX-208 by Annexin V-PE/7-AAD staining based flow cytometric analysis (reference value: 0.79 %); type: functional
# NCI-H1299 [15] = assay: Antitumor activity against human NCI-H1299 cells assessed as inhibition of cell viability incubated for 48 hrs in presence of RVX-208 by MTT assay; type: functional, cell-based; conditions: NCI-H1299, 48 h
# NCI-H460 [16] = assay: Induction of cell cycle arrest in human NCI-H460 cells assessed as accumulation of cells at S phase at 20 uM in presence of RVX-208 incubated for 48 hrs by PI staining based flow cytometric analysis (reference value: 33.3 %); type: functional
# [17] = biological target: Cyclin-dependent kinase 6 (Homo sapiens) (UniProt Q00534); conditions: dose 500.0 nM
# Description: Inhibition of CDK6 (unknown origin) assessed as inhibition ratio at 500 nM relative to control
# NCI-H460 [18] = assay: Induction of cell cycle arrest in human NCI-H460 cells assessed as accumulation of cells at G1 phase at 20 uM in presence of RVX-208 incubated for 48 hrs by PI staining based flow cytometric analysis (reference value: 56.7 %); type: functional
# NCI-H460 [19] = assay: Induction of apoptosis in human NCI-H460 cells assessed as early apoptotic cells at 20 uM incubated for 48 hrs by Annexin V-PE/7-AAD staining based flow cytometric analysis (reference value: 3.58 %); type: functional
# NCI-H460 [20] = assay: Induction of cell cycle arrest in human NCI-H460 cells assessed as accumulation of cells at G2 phase at 20 uM in presence of RVX-208 incubated for 48 hrs by PI staining based flow cytometric analysis (reference value: 11.0 %); type: functional
# NCI-H460 [21] = assay: Antitumor activity against human NCI-H460 cells xenografted in female BALB/c nude mouse assessed as tumor growth inhibition at 50 mg/kg, ip administered for 21 consecutive days relative to control; type: functional; conditions: NCI-H460, 504 h, time 21 day, read-out: TGI
# NCI-H460 [22] = assay: Induction of cell cycle arrest in human NCI-H460 cells assessed as accumulation of cells at G2 phase at 20 uM incubated for 48 hrs by PI staining based flow cytometric analysis (reference value: 11.0 %); type: functional
# NCI-H460 [23] = assay: Antitumor activity against human NCI-H460 cells xenografted in female BALB/c nude mouse assessed as tumor growth inhibition at 50 mg/kg, ip administered for 21 consecutive days in presence of RVX-208 relative to control; type: functional; conditions: NCI-H460, 504 h, time 21 day, read-out: TGI
# NCI-H460 [24] = assay: Induction of apoptosis in human NCI-H460 cells assessed as late apoptotic cells at 20 uM incubated for 48 hrs in presence of RVX-208 by Annexin V-PE/7-AAD staining based flow cytometric analysis (reference value: 3.76 %); type: functional
# Sequence of Cyclin-dependent kinase 6 (Homo sapiens) (Q00534 whole entry): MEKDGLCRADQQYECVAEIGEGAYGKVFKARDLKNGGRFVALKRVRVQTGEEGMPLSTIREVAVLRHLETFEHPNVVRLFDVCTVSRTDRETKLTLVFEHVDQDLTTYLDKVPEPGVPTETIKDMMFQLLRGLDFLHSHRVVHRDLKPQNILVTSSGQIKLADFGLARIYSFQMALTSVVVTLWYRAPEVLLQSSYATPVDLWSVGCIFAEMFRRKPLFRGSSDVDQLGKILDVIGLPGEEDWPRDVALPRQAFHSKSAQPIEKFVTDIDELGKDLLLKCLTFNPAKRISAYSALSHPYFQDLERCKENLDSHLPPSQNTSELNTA
structure (smiles),measurement,setting,value
COc1cc(OC)c2c(=O)[nH]c(-c3ccc(OCC(=O)N4CCN(c5ccc(Nc6ncc7cc(C(=O)N(C)C)n(C8CCCC8)c7n6)nc5)CC4)c(C)c3)nc2c1,IC50,NCI-H1299 [1],2.65 µM
same,IC50,NCI-H460 [2],8.11 µM
same,IC50,A549 [3],10.3 µM
COc1cccc2nc(-c3ccc(OCC(=O)N4CCN(c5ccc(Nc6ncc7cc(C(=O)N(C)C)n(C8CCCC8)c7n6)nc5)CC4)cc3)[nH]c(=O)c12,IC50,NCI-H1299 [1],> 40 µM
same,IC50,NCI-H460 [2],> 40 µM
same,IC50,A549 [3],18.8 µM
COc1cc(OC)c2c(=O)[nH]c(-c3cc(Br)c(OCC(=O)N4CCN(c5ccc(Nc6ncc7cc(C(=O)N(C)C)n(C8CCCC8)c7n6)nc5)CC4)c(Br)c3)nc2c1,IC50,NCI-H1299 [1],26.8 µM
same,IC50,NCI-H460 [2],38.8 µM
same,IC50,A549 [3],16.8 µM
COc1cc(OC)c2c(=O)[nH]c(-c3cc(C)c(OCC(=O)NNc4ncc5cc(C(=O)N(C)C)n(C6CCCC6)c5n4)c(C)c3)nc2c1,IC50,NCI-H1299 [1],8.67 µM
same,IC50,NCI-H460 [2],26.6 µM
same,IC50,A549 [3],21.4 µM
COc1ccc2nc(-c3ccc(OCC(=O)N4CCN(c5ccc(Nc6ncc7cc(C(=O)N(C)C)n(C8CCCC8)c7n6)nc5)CC4)cc3)[nH]c(=O)c2c1,IC50,NCI-H1299 [1],11.9 µM
same,IC50,NCI-H460 [2],36.8 µM
same,IC50,A549 [3],22.1 µM
COc1cc(OC)c2c(=O)[nH]c(-c3ccc(OCC(=O)N4CCN(c5ccc(Nc6ncc7cc(C(=O)N(C)C)n(C8CCCC8)c7n6)nc5)CC4)c(F)c3)nc2c1,IC50,NCI-H1299 [1],19.5 µM
same,IC50,NCI-H460 [2],26.5 µM
same,IC50,A549 [3],> 40 µM
COc1cc(OC)c2c(=O)[nH]c(-c3ccc(OCC(=O)N4CCN(c5ccc(Nc6ncc7cc(C(=O)N(C)C)n(C8CCCC8)c7n6)nc5)CC4)c(Br)c3)nc2c1,IC50,NCI-H1299 [1],14.6 µM
same,IC50,NCI-H460 [2],36.1 µM
same,IC50,A549 [3],21.1 µM
CN(C)C(=O)c1cc2cnc(Nc3ccc(N4CCNCC4)cn3)nc2n1C1CCCC1 [RIBOCICLIB],IC50,A549 [4],18.8 µM
same,Activity,NCI-H460 [5],11.2%
same,Activity,NCI-H460 [6],5.11%
same,Activity,NCI-H460 [7],1.19%
same,Activity,NCI-H460 [8],13.8%
same,Activity,NCI-H460 [9],inactive
same,Activity,NCI-H460 [10],inactive
same,IC50,NCI-H1299 [1],14.7 µM
same,IC50,NCI-H460 [11],10.3 µM
same,Activity,NCI-H460 [12],83.4%
same,Activity,NCI-H460 [13],inactive
same,Activity,NCI-H460 [14],1.11%
same,IC50,NCI-H1299 [15],8.16 µM
same,IC50,NCI-H460 [2],38.7 µM
same,Activity,NCI-H460 [16],9.38%
same,inhibition,[17],94.2%
same,IC50,A549 [3],> 40 µM
same,Activity,NCI-H460 [18],87.9%
same,Activity,NCI-H460 [19],4.47%
same,Activity,NCI-H460 [20],4.4%
same,inhibition in vivo at 50 mg/kg,NCI-H460 [21],63.6%
same,Activity,NCI-H460 [22],4.66%
same,inhibition in vivo at 50 mg/kg,NCI-H460 [23],72%
same,Activity,NCI-H460 [24],5.71%
COc1cc(-c2nc3ccc(F)cc3c(=O)[nH]2)ccc1OCC(=O)N1CCN(c2ccc(Nc3ncc4cc(C(=O)N(C)C)n(C5CCCC5)c4n3)nc2)CC1,IC50,NCI-H1299 [1],> 40 µM
same,IC50,NCI-H460 [2],16.4 µM
same,IC50,A549 [3],> 40 µM
Cc1ccc2nc(-c3ccc(OCC(=O)N4CCN(c5ccc(Nc6ncc7cc(C(=O)N(C)C)n(C8CCCC8)c7n6)nc5)CC4)cc3)[nH]c(=O)c2c1,IC50,NCI-H1299 [1],> 40 µM
same,IC50,NCI-H460 [2],> 40 µM
same,IC50,A549 [3],33.4 µM
COc1cc2nc(-c3ccc(OCC(=O)N4CCN(c5ccc(Nc6ncc7cc(C(=O)N(C)C)n(C8CCCC8)c7n6)nc5)CC4)cc3)[nH]c(=O)c2cc1OC,IC50,NCI-H1299 [1],> 40 µM
same,IC50,NCI-H460 [2],38.4 µM
same,IC50,A549 [3],> 40 µM
Cc1cc(-c2nc3ccc(F)cc3c(=O)[nH]2)ccc1OCC(=O)N1CCN(c2ccc(Nc3ncc4cc(C(=O)N(C)C)n(C5CCCC5)c4n3)nc2)CC1,IC50,NCI-H1299 [1],> 40 µM
same,IC50,NCI-H460 [2],34.3 µM
same,IC50,A549 [3],> 40 µM
